Here are results for 2 compounds from patent US20250082656A1, “DOSAGE REGIMENS FOR TREATMENT OF DENGUE INFECTION” (Atea Pharmaceuticals, Inc., priority 2022, published 2025).

Converted amounts (≈) assume the structure as drawn.

Data set [1] can be described thus: Cardiomyocyte cytotoxicity assay (CellTiter Glo). The settings on record: human, human iPS cardiomyocytes. (In general: In ATP-based viability assays light output follows the ATP content of the culture.)
For another data set, the system named is Dengue-2 (DENV-2). Nature of the data set: Virus yield reduction (VYR) assay, DENV-2. Format: cell-based.
Data set [2] in a line: Cytotoxicity in CEM-SS cells. The settings on record: human, Table 2, CEM-SS. It counts as cell-based. Here is the method: (§1) To assess the antiviral specificity of Compound 1 (AT-281), serial dilutions were incubated with various host cell lines infected with a panel of DNA and RNA viruses other than flaviviruses. The activity of Compound 1 (AT-281) was measured in infected cells using the neutral red assay to determine the effective concentration required to inhibit viral replication 50% (EC50) (described in Example 3) and the threshold concentration required to obtain a perceptible effect on 50% of the cells incubated without virus (CC50). Compound 1 (AT-281) had no activity against the DNA viruses tested and was only weakly or not active against several RNA viruses (Table 2).

A short description of data set [3]: Cytotoxicity in MDCK cells. It counts as cell-based. The settings on record: dog, Table 2, MDCK. Here is the method: as §1
Another data set is described as follows: in vitro. The settings on record: hamster.
The next data set concerns Dengue-3 (DENV-3). The experiment in a line: Neutral red assay of virus-induced CPE, DENV-3. Format: cell-based. As to conditions: DENV3, Huh-7.
A further data set has as its system DENV-4. Nature of the data set: microbe, parasite or virus in culture. The settings on record: Dengue virus, DENV4, Huh-7.
The next data set relates to Dengue serotype 3. The experiment in a line: In vitro antiviral potency, summary over strains, Dengue serotype 3. It counts as cell-based. As to conditions: Dengue virus.
The subject of a further data set is DENV-2. Nature of the data set: CPE (MTT) assay, DENV-2 in human PBMCs and BHK-21 cells. It counts as cell-based, Dengue virus.
The test system of the next data set is Japanese encephalitis. The experiment in a line: Neutral red assay of virus-induced CPE, JEV. Format: cell-based. As to conditions: SA-14, Huh-7, neutral red assay.
Data set [4] can be described thus: Cytotoxicity in HEp2 cells. As to conditions: human, Table 2, HEp2. Format: cell-based. On the procedure:
as §1

The test system of the next data set is DENV1 RdRp domain. Nature of the data set: Thermal shift assay, DENV1 RdRp domain. As to conditions: RdRp domain DENV1, 100 μM compound.
A further data set concerns DENV3 RdRp domain. The experiment in a line: Thermal shift assay, DENV3 RdRp domain. The settings on record: RdRp domain DENV3, 100 μM compound.
In another data set the target is DENV1 NS5 (Dengue virus type 1, UniProt P17763). Nature of the data set: Nucleotide analogue incorporation / discrimination assay, DENV1 NS5. It counts as biochemical. As to conditions: GTP for AT-9010 and AT-9002, UTP for SOF-TP. Here is the method:
(§2) The chain-terminating efficiency of Compound 5 was measured in competitive nucleotide incorporation assays using all four DENV serotypes. […] In comparison, sofosbuvir triphosphate is incorporated into the RNA less than 1 time for every 100 UTP (native uridine triphosphate) incorporations.
(§3) Measurements and quantitations were as in FIG. 19B.
(§4) DENV NS5 was pre-incubated with the annealed P10/T20 RNA in an assembly buffer containing 20 mM HEPES pH 7.5, 10% glycerol, 5 mM MgCl2, and 5 mM DTT for 10 min at 30° C. to create an active RNA elongation complex.
(§5) Reactions were started by adding AT-9010 with either all four NTPs or UTP, ATP, and CTP only.
(§6) Single nucleotide incorporation was tested as follows. Reactions were started by adding the corresponding NTP or analogue. Final concentrations were 1 μM NS5, 0.25 μM P10/T20, 100 μM NTP or analogue in a final buffer containing 20 mM HEPES pH 7.5, 15% glycerol, 5 mM MgCl2, and 5 mM DTT.
(§7) Reactions were quenched at the designated time points in 3× volume FBD stop solution (formamide, 10 mM EDTA) and analyzed on 20% acrylamide-bisacrylamide (19:1) […] sequencing gels. RNA products were visualized using a Typhoon FluorImager then analyzed and quantified using ImageQuant software.

For the next data set, the target named is DENV2 NS5MTase protein (Dengue virus type 2, UniProt P14340). The experiment in a line: MTase activity filter-binding assay (FBA). It counts as biochemical. The settings on record: 30° C., 30 min, read-out: IC50 against the MTase domain. Here is the method:
A) Dose-response determination using a filter binding assay (FBA). Reactions were incubated at 30° C. during 30 min and the enzymatic activity was determined using FBA as described in Example 33. […] Interacting residues are labelled and shown as sticks. E) Structural comparison of the position of a GTP (pink) and AT9010 (light brown) bound in the Cap binding site. Cap binding site structures belong to DENV2 (in pink—PDB 2P1D)) and DENV3 (in light brown) MTases and are conserved.
The transfer of tritiated methyl from [3H]-SAM onto RNA substrate was monitored by filter-binding assay (FBA), performed according to the method described previously (Paesen et al., 2015). […] FBA was carried out in reaction mixture [40 mM Tris-HCl (pH 8.0), 1 mM DTT, 2 μM SAM and 0.1 μM 3H-SAM (Perkin Elmer)] in the presence of 0.7 μM mGpppAC4 synthetic RNA and DENV2 NS5MTase protein (500 nM). The enzyme was first mixed with the compound (0.5 to 1000 μM) suspended in water before the addition of RNA substrate and SAM and then incubated at 30° C. Reaction mixtures were stopped after 30 min by their 10-fold dilution in ice-cold water. […] They were soaked with scintillation fluid (Perkin Elmer), and 3H-methyl transfer to the RNA substrates was determined using a Wallac MicroBeta TriLux Liquid Scintillation Counter (Perkin Elmer). […]

A further data set addresses DENV3 NS5 (Dengue virus type 3, UniProt Q6YMS4). Nature of the data set: Nucleotide analogue incorporation / discrimination assay, DENV3 NS5. It counts as biochemical. The settings on record: GTP for AT-9010 and AT-9002, UTP for SOF-TP. Here is the method:
as §2, §3, §4, §5, §6, §7

Another data set has as its target DENV4 NS5 (Dengue virus type 4, UniProt P09866). Nature of the data set: Thermal shift assay, DENV4 NS5. As to conditions: read-out: ΔTM.

Sequence of DENV2 NS5MTase protein (P14340 2492-2787 limits assumed): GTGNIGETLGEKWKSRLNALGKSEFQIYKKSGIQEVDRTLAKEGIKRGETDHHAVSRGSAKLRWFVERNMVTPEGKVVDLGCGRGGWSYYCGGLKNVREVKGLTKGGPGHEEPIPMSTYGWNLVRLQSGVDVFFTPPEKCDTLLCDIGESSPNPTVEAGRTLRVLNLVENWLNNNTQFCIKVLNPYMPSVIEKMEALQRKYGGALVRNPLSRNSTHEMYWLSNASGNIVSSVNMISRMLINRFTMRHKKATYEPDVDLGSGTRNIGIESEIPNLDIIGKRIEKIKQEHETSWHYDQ
Sequence of DENV1 NS5 (P17763 2494-3392): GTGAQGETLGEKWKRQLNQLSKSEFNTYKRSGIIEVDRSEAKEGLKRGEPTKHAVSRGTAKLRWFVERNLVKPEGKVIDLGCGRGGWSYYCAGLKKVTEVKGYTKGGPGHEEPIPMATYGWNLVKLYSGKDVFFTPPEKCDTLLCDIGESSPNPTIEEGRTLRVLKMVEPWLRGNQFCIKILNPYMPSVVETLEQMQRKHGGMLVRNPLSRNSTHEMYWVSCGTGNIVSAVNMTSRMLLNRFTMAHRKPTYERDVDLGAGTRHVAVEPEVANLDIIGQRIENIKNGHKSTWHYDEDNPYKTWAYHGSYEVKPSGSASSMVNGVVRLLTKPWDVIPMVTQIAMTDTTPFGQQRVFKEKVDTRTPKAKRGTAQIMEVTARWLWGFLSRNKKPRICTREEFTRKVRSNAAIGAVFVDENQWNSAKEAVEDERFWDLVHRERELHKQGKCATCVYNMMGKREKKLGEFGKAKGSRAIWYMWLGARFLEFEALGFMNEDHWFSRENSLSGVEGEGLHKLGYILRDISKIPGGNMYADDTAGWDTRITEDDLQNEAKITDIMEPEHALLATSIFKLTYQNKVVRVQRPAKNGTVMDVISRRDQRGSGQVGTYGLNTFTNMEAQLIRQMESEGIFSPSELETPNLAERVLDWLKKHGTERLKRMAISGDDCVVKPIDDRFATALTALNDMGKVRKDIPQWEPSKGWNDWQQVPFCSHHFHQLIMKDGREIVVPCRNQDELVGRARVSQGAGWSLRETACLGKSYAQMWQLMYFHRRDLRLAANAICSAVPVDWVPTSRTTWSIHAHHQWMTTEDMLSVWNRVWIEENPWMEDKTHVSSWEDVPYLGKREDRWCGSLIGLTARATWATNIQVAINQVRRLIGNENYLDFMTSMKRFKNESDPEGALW
Sequence of DENV4 NS5 (P09866 2488-3387): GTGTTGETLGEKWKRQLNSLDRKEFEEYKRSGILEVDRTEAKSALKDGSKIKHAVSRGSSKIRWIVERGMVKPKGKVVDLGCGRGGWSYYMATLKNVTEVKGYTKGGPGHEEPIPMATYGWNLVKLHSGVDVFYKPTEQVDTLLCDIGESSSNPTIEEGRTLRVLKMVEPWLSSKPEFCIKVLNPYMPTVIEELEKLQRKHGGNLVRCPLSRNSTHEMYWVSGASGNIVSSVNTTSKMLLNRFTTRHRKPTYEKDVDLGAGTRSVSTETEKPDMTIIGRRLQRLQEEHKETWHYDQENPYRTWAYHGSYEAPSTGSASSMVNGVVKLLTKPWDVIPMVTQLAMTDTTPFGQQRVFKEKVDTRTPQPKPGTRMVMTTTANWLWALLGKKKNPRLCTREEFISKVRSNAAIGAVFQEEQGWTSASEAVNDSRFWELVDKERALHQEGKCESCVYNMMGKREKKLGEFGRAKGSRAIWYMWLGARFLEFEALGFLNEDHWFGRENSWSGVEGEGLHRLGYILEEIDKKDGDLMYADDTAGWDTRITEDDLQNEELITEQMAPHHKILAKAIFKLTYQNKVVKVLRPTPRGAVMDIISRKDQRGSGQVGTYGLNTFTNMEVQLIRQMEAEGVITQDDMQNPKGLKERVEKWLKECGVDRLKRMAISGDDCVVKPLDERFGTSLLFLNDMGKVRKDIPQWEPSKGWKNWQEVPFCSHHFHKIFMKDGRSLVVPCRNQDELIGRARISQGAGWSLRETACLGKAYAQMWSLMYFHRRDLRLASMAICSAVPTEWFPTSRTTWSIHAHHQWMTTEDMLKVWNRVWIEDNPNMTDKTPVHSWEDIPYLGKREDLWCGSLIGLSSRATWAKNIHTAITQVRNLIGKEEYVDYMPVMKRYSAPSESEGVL
Sequence of DENV3 NS5 (Q6YMS4 2491-3390): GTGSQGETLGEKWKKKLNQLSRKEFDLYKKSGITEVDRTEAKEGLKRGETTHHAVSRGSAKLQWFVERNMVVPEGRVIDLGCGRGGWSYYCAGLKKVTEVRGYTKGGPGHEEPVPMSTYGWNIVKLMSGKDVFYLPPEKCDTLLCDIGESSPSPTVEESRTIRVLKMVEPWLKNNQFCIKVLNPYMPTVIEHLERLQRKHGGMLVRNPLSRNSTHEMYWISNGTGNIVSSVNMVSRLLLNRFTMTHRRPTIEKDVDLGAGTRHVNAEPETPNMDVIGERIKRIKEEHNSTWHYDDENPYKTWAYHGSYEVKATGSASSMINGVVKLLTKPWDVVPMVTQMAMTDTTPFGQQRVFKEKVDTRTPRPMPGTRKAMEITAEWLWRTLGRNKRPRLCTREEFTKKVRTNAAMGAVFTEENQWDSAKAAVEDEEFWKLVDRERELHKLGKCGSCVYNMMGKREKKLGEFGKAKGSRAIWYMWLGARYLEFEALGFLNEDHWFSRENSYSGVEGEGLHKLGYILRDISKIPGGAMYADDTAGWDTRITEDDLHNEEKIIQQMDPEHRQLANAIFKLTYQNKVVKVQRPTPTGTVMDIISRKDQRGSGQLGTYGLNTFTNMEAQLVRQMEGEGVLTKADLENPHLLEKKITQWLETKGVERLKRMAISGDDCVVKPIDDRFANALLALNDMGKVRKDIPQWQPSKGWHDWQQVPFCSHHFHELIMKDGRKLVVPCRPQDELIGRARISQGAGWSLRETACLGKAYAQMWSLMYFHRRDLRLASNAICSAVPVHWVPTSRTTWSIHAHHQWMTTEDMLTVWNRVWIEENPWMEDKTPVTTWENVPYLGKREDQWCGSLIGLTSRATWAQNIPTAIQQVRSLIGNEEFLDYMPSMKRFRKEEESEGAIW

`CNc1nc(N)nc2c1ncn2[C@@H]1O[C@H](CO[P@](=O)(N[C@@H](C)C(=O)OC(C)C)Oc2ccccc2)[C@@H](O)[C@@]1(C)F` [Compound 1, isopropyl ((R)-(((2R,3R,4R,5R)-5-(2-amino-6-(methylamino)-9H-purin-9-yl)-4-fluoro-3-hydroxy-4-methyltetrahydrofuran-2-yl)methoxy)(phenoxy)phosphoryl)-L-alaninate] came in with a CC50 at 3 days in [1] greater than 100 µM. Further, the EC50 (in general, the midpoint of the concentration-response curve) in the data set with Dengue-2 (DENV-2) (DENV2, BHK-21) was 6.5 µM; with Dengue-2 (DENV-2) (DENV2, Huh-7) it was 0.64 µM; in the data set with Dengue-3 (DENV-3), 0.77 µM; in the data set with DENV-4 it was 0.57 µM; with Dengue serotype 3, less than 1.5 µM; with DENV-2 (DENV-2 clinical isolate, BHK-21, CPE), 1.05 µM. In addition, the concentration for a half-maximal effect (EC50) worked out at 3.82 µM with DENV-2 (Dengue virus, DENV2, BHK-21, DENV-2 NGC, BHK-21, CPE read-out) and 0.21 µM with Japanese encephalitis. Further, in the data set with Dengue-2 (DENV-2) (DENV2, read-out: EC90 against Dengue serotype 2), the concentration for an effect of 90% (EC90) (commonly the concentration needed for an effect of 90%) is roughly 0.2 mg/L (≈ 0.344 µM). Further, the CC50 in data set [2] is greater than 100 µM; in data set [3], greater than 100 µM; in “in vitro”, greater than 170 µM; in data set [4] it was greater than 100 µM.
On to `C[C@@]1(F)[C@H](O)[C@@H](COP(=O)(O)OP(=O)(O)OP(=O)(O)O)O[C@H]1n1cnc2c(=O)[nH]c(N)nc21` [Compound 5], for which the ΔTM was 5.6±0.1 °C in the data set with DENV1 RdRp domain and 3.2 ± 0.1 °C in the data set with DENV3 RdRp domain. Moreover, the results for the “Preference (discrimination) native nucleotide > analogue” value on DENV1 NS5 and on DENV3 NS5 were 7.7 ± 0.5 and 11.6 ± 1.3, respectively. For the same compound, the 50% inhibitory concentration (IC50) (commonly the concentration that gives 50% inhibition) on DENV2 NS5MTase protein was determined as 29.6 µM. The ΔTm (in general, the shift of the melting midpoint relative to a reference) at 100 µM at DENV4 NS5 was 4.8 ± 0.1 °C.
